Source: US20240336638A1, “IMIDAZOLE COMPOUND, AND INTERMEDIATE AND APPLICATION THEREOF” (priority 2021, published 2024)
Read-outs that look alike come from different tables or passages of the source.

Experiments:
[1] = Blood-brain barrier (BBB) study in SD rats after single IV and PO administration, brain; format: in vivo; conditions: for Cmax / Tmax / half-life / MRT last / MRT inf: Sprague-Dawley (SD); for MRT last: read-out: MRT(0−t); for MRT inf: read-out: MRT(0−∞); for T1/2 and AUC(0-∞) in the brain tissue: compared to Ozagrel
Procedure: Effect Example 3: Pharmacokinetic and blood-brain barrier (BBB) studies of compounds after single intravenous (IV) and oral (PO) administration in SD rats
(§1) The experimental method of administration by gavage injection in rats: SD rats weighing 180 to 220 g were fasted for 12 hours prior to the experiment, with free access to water. After administration, food and water were withheld for 4 hours. After this 4-hour period, the rats were allowed free access to water, and food was provided after 8 hours. The drugs were administered at a set dose. N=3, blood samples were taken before administration, and 5 minutes, 0.25 hours, 0.5 hours, 0.75 hours, 1 hour, 2 hours, 4 hours, 8 hours, and 24 hours after administration, respectively, and placed into sodium heparin anticoagulant tubes. The tubes were centrifuged for 1 hour at 4° C. and at 8000 rpm for 5 minutes, and the plasma was then separated and stored in centrifuge tubes at −70° C. for analysis.
as §1, with “of intravenous” for “of”, “to” for “by gavage injection in”
The plasma concentration-time data were processed using the Phoenix® WinNonlin® 8.0 program to calculate pharmacokinetic parameters.
Among them, Cmax and Tmax are measured values, the elimination rate constant k of the tail section of the C-t curve is obtained from the linear regression of LnC-t, and the value of AUC0-4 is calculated by the trapezoidal area method, and the area under the curve from 0 to ∞ time is AUC=AUC0-4+Ct/k.

[2] = tested on: AA-induced platelet aggregation; assay: Inhibitory effect on AA-induced platelet aggregation in rats in vitro (washed platelets); format: cell-based, rat; conditions: 1*10^−4 M
Procedure: Several experimental groups were established, including a blank control group, an AA (arachidonic acid) model control group, and various test compounds. Each test compound had three concentration groups: 10^−3 M, 10^−4 M, and 10^−5 M. The data from the blank and model control group were shared among the different drug concentration groups as a control.
Male SD rats were anesthetized with 3% chloral hydrate (300 mg/kg) through intraperitoneal injection. After being fixed in a supine position, the skin of the neck was cut about 3 cm, bluntly separated with a hemostat, and the trachea was exposed after the common carotid artery was separated. The distal end of the common carotid artery was ligated with a fine thread, and the proximal end was clamped with an arterial clamp for vascular intubation. After the intubation was fixed, the artery clamp was opened, and the blood was placed into a blood collection tube containing 3.8% trisodium citrate so that the blood was mixed well with the 3.8% trisodium citrate in a volume ratio of 9:1.
The prepared anticoagulant blood was mixed well and centrifuged for 10 minutes at 500 rpm, then the upper layer of plasma was aspirated to obtain platelet-rich plasma (PRP), and the PRP was centrifuged again for 5 minutes at 3,000 rpm. The supernatant was discarded, and the platelet precipitate was obtained, which was washed once with Ca^2+-free HEPES-Tyrode's buffer, then centrifuged at 3,000 rpm for 5 minutes. The supernatant was discarded, and the platelets were resuspended with Ca^2+-free HEPES-Tyrode's buffer to obtain the washed platelets.
First, 300 μL of Ca^2+-containing HEPES-Tyrode's solution was taken into the test cup, put into the test wells, and calibrated by pressing the “PPP” key. Subsequently, 240 μL of the washed platelets were added to the test cup, then added with 30 μL of different concentrations of drug solution, incubated for 10 minutes at 37° C. in a preheated bath, and then put into the test wells. 3 μL of 100× CaCl2 solution (final concentration of 0.2 g/L) and 30 μL of inducer (final concentration of AA of 800 μM) were added to the test wells, and then the “Start” key was pressed immediately. The maximum aggregation rate was recorded every 60 s. The measurement was repeated three times for each concentration for 10 minutes, and the aggregation curve was plotted.
The platelet aggregation inhibition rate was calculated with the following formula:
Inhibition rate (%)=(maximum aggregation rate in the model control group−maximum aggregation rate in the administration group)/maximum aggregation rate in the model control group×100%
All data were expressed as mean±standard deviation (mean±SD). SPSS 22.0 software was used for statistical analysis of the data. Intergroup data were analyzed using one-way ANOVA, with P<0.05 considered as statistically significant and P<0.01 considered as highly significant.

Compound | Cmax ([1]; rat brain, IV 1 mg/kg) | Tmax ([1]; rat brain, IV 1 mg/kg) | half-life ([1]; rat brain, IV 1 mg/kg) | MRT last ([1]; rat brain, IV 1 mg/kg) | MRT inf ([1]; rat brain, IV 1 mg/kg) | Cmax ([1]; rat brain, PO 6 mg/kg) | Tmax ([1]; rat brain, PO 6 mg/kg) | half-life ([1]; rat brain, PO 6 mg/kg) | MRT last ([1]; rat brain, PO 6 mg/kg) | MRT inf ([1]; rat brain, PO 6 mg/kg) | T1/2 and AUC(0-∞) in the brain tissue ([1]; intravenously at 1 mg/kg) | T1/2 and AUC(0-∞) in the brain tissue ([1]; orally at 6 mg/kg) | AUC(0−t) ([1]; rat brain, IV 1 mg/kg) | AUC(0−∞) ([1]; rat brain, IV 1 mg/kg) | AUC(0−t) ([1]; rat brain, PO 6 mg/kg) | AUC(0−∞) (h*ng/g) ([1]; rat brain, PO 6 mg/kg) | significant inhibition of AA-induced platelet aggregation [2] | AUC(0−∞) ([1]; rat brain, PO 6 mg/kg)
O=C(O)[C@@H]1C[C@H]1c1ccc(Cn2cnc(Cl)c2)c(Cl)c1 [Compound 11, (1R,2R)-2-(3-Chloro-4-((4-chloro-1H-imidazol-1-yl)methyl)phenyl)cyclopropane-1-carboxylic acid] | 57.5 ng/g | 1 h | 19.5 h | 9.49 h | 27.4 h | 385 ng/g | 4 h | 19.7 h | 9.94 h | 28.5 h | significantly increased | significantly increased | 855.25 ng·h/g | 1475.23 ng·h/g | 7014.55 ng·h/g | 12,439.74 h*ng/g | can significantly inhibit | –
O=C(O)[C@@H]1C[C@H]1c1ccc(Cn2ccnc2)c(F)c1 [Compound 15, (1R,2R)-2-(4-((1H-Imidazol-1-yl)methyl)-3-fluorophenyl)cyclopropane-1-carboxylic acid] | 41.2 ng/g | 0.08 h | 2.2 h | 0.82 h | 3.05 h | 199 ng/g | 1 h | 1.7 h | 2.56 h | 2.91 h | significantly increased | significantly increased | 33.91 ng·h/g | 69.74 ng·h/g | 815.87 ng·h/g | – | can significantly inhibit | 853.63 ng·h/g
O=C(O)[C@@H]1C[C@H]1c1ccc(Cn2cnc(F)c2)cc1F [Compound 17, (1R,2R)-2-(2-Fluoro-4-((4-fluoro-1H-imidazol-1-yl)methyl)phenyl)cyclopropane-1-carboxylic acid] | 84.1 ng/g | 0.08 h | 3.72 h | 2.53 h | 4.7 h | 323 ng/g | 2 h | 2.82 h | 4.53 h | 4.6 h | significantly increased | significantly increased | 169.74 ng·h/g | 212.39 ng·h/g | 2329.55 ng·h/g | – | can significantly inhibit | 2336.46 ng·h/g
O=C(O)[C@@H]1C[C@H]1c1ccc(Cn2cnc(F)c2)c(Cl)c1 [Compound 18, (1R,2R)-2-(3-Chloro-4-((4-fluoro-1H-imidazol-1-yl)methyl)phenyl)cyclopropane-1-carboxylic acid] | 75.5 ng/g | 0.08 h | 8.7 h | 7.19 h | 11.5 h | 460 ng/g | 1 h | 8.36 h | 7.84 h | 11.7 h | significantly increased | significantly increased | 633.23 ng·h/g | 741.29 ng·h/g | 6454.78 ng·h/g | – | can significantly inhibit | 7477.48 ng·h/g
O=C(O)[C@@H]1C[C@H]1c1ccc(Cn2ccnc2)cc1 [Compound 19, (1R,2R)-2-(4-((1H-Imidazol-1-yl)methyl)phenyl)cyclopropane-1-carboxylic acid] | 36 ng/g | 0.08 h | 0.38 h | 0.35 h | 0.56 h | 168 ng/g | 0.25 h | 0.77 h | 1.22 h | 1.32 h | – | – | 16.44 ng·h/g | 19.83 ng·h/g | 289.35 ng·h/g | – | can significantly inhibit | 296.91 ng·h/g
O=C(O)/C=C/c1ccc(Cn2ccnc2)cc1 [Ozagrel, reference compound] | 27.6 ng/g | 0.08 h | 0.11 h | 0.15 h | 0.17 h | 42.6 ng/g | 0.25 h | 0.4 h | 0.59 h | 0.68 h | – | – | 4.96 ng·h/g | 5.25 ng·h/g | 35.86 ng·h/g | – | – | 37.46 ng·h/g
